From patent US5691338A, “1,2-dithiole-3 thiones for the treatment of reverse transcriptase-dependent viral infections” (priority 1995, dated 1997) come the findings set out here.

Data set [1] addresses T1, HIV-1 reverse transcriptase (RT) (Human immunodeficiency virus type 1 group M subtype B, UniProt P04585).
T1 construct: Recombinant HIV-1 reverse transcriptase (RT) was obtained from Worthington (Freehold, N.J.); purchased Worthington (Freehold, N.J.)
Briefly: Inhibition of recombinant HIV-1 reverse transcriptase (TTP incorporation). The class given is biochemical. As to conditions: identical assay conditions. How it is done:
(§1) Reverse transcriptase assays were performed as described by Flexner, et al. (25) using recombinant HIV-1 RT as the source of enzyme. Dilutions and assay were carried out in 96-well "half-area" plates. The enzyme with various concentrations of test compounds were dissolved in DPBS containing 1% w/v BSA and diluted in 50 μl volumes; 10 μl aliquots in triplicate were transferred to another plate for the enzyme assay. The reactions were initiated by the addition of 25 μl/well of buffer containing 50 mM Tris.cndot.Cl (pH 8.0), 75 mM KCl, 1 mM dithiothreitol, 2 mM MgCl2, 5 μg/ml poly(A), 2.5 μg/ml oligo (dT), 10 μCi/ml ^32 p TTP with or without unlabeled TTP. […] TTP incorporation was measured by spotting 20 μl of the reaction cocktail onto DE81 paper, washing the paper with 4×5 min washes of 300 mM NaCl and 30 mM sodium citrate (pH 7.0), drying the paper, and counting the paper by liquid scintillation counting. The assays performed with oltipraz and 1,2-dithiole-3-thione contained 0.29% final concentration DMSO. This concentration of DMSO had no effect on RT activity.

The next data set relates to HIV-1 (HTLVIIIB). Briefly: microbe, parasite or virus in culture. The data set is classed as cell-based. The note with it: H9 cells; for IC50: Human immunodeficiency virus 1.
For data set [2], the target named is T1, HIV-1 reverse transcriptase (RT). Briefly: Time-dependent (irreversible) inhibition of HIV-1 reverse transcriptase after preincubation. The class given is biochemical. As to conditions: kinetic behaviour. How it is done:
FIG. 6. […] RT was preincubated for the times indicated with oltipraz dissolved in DPBS containing 1 mg/ml bovine serum albumin, 0.13% DMSO, and either 4 μM TTP or 5 μg/ml poly(A):2.5 μg/ml oligo(dT). After incubation, 10 μl aliquots in triplicate were added to 25 μl of a reaction cocktail containing 4 μM TTP, 5 μg/ml poly(A), and 2.5 μg/ml oligo(dT) and assayed for TTP incorporation into DNA over 30 min. as described by Flexner, et al. (25). The insets are Kitz-Wilson transformations (41).
as §1, with “DMSO.” for “DMSO. This concentration of DMSO had no effect on RT activity.”

The subject of data set [3] is glutathione levels (GSH) in H9 cells. Kind of data set: Elevation of glutathione (GSH) levels in H9 cells. The class given is cell-based, human. As to conditions: dose- and time-dependent, H9 cells. Here is the method:
(§2) Five ml of medium was added to T-25 flasks and DMSO containing tests compounds were added to a final concentration of 0.1%. Control medium contained 0.1% DMSO. After the drugs were added, 5×10^6 cells in 5 ml of medium was added to each T-25 flask. The cells were grown at 37° C. in a humidified incubator supplemented with 5% CO2 until harvested (N=3 flasks/group). At the indicated times, cells were isolated by centrifugation (500×g×10 min) and were washed three times by adding 10 ml of ice-cold DPBS, mixing, and centrifuging in a refrigerated centrifuge (500×g×10 min) to isolate the cell pellets. The cells were then lysed by the addition of 400 μl of ice-cold DPBS containing 0.5% Triton X-100 and vortexing. Supernatants were then isolated by centrifuging the lysates (5000×g×20 min). Samples were kept on ice or refrigerated until the reagents for QR or GSH spectrophotometric assays were added to the aliquoted microtiter plates. QR levels were determined by aliquoting 10 μl/well of supernatant in a 96-well plate and measuring the activity by the assay described by Prochaska and Santamaria (20) except that the final NADP^+ concentration was 200 μM (21). Samples were assayed in quadruplicate, and dicoumarol inhibitable-rates (which generally represented less than 5% of the total rate) were also measured. Spectrophotometric blanks contained 10 μl of DPBS with 0.5% Triton X-100. For the GSH assay, 300 μl of sample was placed in a centricon-10microconcentrator and centrifuged (5000×g×45 min) until enough ultrafiltrate could be collected. 50 μl/well of sample in quadruplicate was placed in a 96 well "half-area" plate after which 20 μl of 1 mM Ellman's reagent dissolved in DPBS was added. The yellow color (22) developed within 5 min and was scanned with a uvmax microtiter scanner (Palo Alto, Calif.) at 405 nm. Spectrophotometric blanks contained 50 μl DPBS with 0.5% Triton X-100 and 20 μl of 1 mM Ellman's reagent in DPBS. The optical densities of the specimens were calibrated to a GSH standard curve. Protein contents were determined in 3 ml cuvettes by the Bradford method (23). The protein content in the ultrafiltrates employed for GSH determinations were negligible (<0.01 mg/ml).

The subject of data set [4] is quinone reductase (QR) in H9 cells. Briefly: Elevation of quinone reductase (QR) in H9 cells. The class given is cell-based, human. The note with it: dose- and time-dependent, H9 cells. Here is the method: as §2
We confirmed that the induction of QR in microtiter wells mirrored our results in T-25 flasks by using the method of Prochaska and Santamaria (20). Medium (100 μl) containing 0.1% final concentration DMSO was added to all wells except columns designated to contain the highest concentration of drug or spectrophotometric blanks in duplicate sets of U-bottomed microtiter plates. 200 μl of media containing drug (final DMSO concentration=0.1%) was added to the empty column of wells and then diluted in 2-fold serial dilutions across. After the serial dilutions were performed, 100 μl of media containing 1×10^6 cells/ml was added to each well, and the plates were placed in a 37° C. incubator for 48 h. One set of plates was assayed as described (21) for QR activity, the other was assayed for cell number by the method for Alley et al. (24).

Another data set has as its system H9 cells. Kind of data set: Cytotoxicity in H9 cells by trypan blue exclusion. The data set is classed as cell-based, human.
The mark [5] stands for this setting: Exp 1, IFA, read-out: IC50 HIV-1 replication (Exp 1).
[6] abbreviates: Exp 2, IFA, read-out: IC50 HIV-1 replication (Exp 2).

Structures are written as SMILES. Structures can show the parent of a compound that is named as a salt. Where two headings read alike, the source gives them in different places.

Description for HIV-1 (HTLVIIIB): The effects for test compounds were assessed by means of both IFA and p24 release. In general, the following protocol was followed: H9 cells were infected with HIV-1 at 1000 50% infective doses of viruses/10^6 cells. Virus was allowed to adsorb for 1 h, after which unadsorbed virus was removed by centrifugation. The cells were resuspended and washed twice with PBS (without Ca^+2 or Mg^+2 salts) and centrifuged to collect the cell pellet (150×g×10 min). Cells were suspended in fresh medium and added at a final cell density of 500,000 cells/ml in a 96-well plate with media containing 0.1% DMSO and various concentrations of test compounds. The cells were re-fed freshly prepared media containing 0.1% DMSO±test compounds on day four (for preinduction experiments, cells were exposed to inducers on days -2, 0, and +4 days relative to infection). After seven days, cells were examined for cytoxicity by trypan blue exclusion, the degree of infection with HIV-1 by IFA, and the supernatants were assayed for p24 levels according to the manufacturer's directions. The IFA procedure can be summarized as follows: The cells were washed twice in PBS and were placed in 5 mm 12-well slides. After allowing the slides to dry and fixing the cells with acetone for 5 min, 10 μl of HIV-1 positive serum in 40 μl PBS was added to each well and allowed to incubate at 37° C. for 30 min. After incubation, the slides were washed twice with PBS and incubated at 37° C. for 30 min with 2.5 μl goat anti-human IgG-fluorescein isothiocyanate conjugate in 50 μl PBS containing 0.01% Evans Blue per well. The slides were then washed twice with PBS, dried, and mounted with 50% glycerol in PBS, and scored for the percentage of fluorescent cells by fluorescent microscopy.

With `Cc1cn([C@H]2C[C@H](N=[N+]=[N-])[C@@H](COP(=O)(O)OP(=O)(O)OP(=O)(O)O)O2)c(=O)[nH]c1=O` [AZT triphosphate, 3'-azido-3'-deoxythymidine-5'-triphosphate], the “potency relative to oltipraz (reverse transcriptase)” value in data set [1] was “approximately 1000 fold”.

With `S=c1cc(-c2ccccc2)ss1` [compound 1], in the data set with HIV-1 (HTLVIIIB) (Exp 1, IFA), the “IC50 HIV-1 replication (Exp 1)” value is “Inactive”. The “IC50 HIV-1 replication (Exp 2)” value in the data set on HIV-1 (HTLVIIIB) (Exp 2, IFA) is on record as “Inactive”.

Turning to `COc1ccc(-c2cc(=S)ss2)cc1` [compound 2], the “IC50 HIV-1 replication (Exp 1)” value in the data set with HIV-1 (HTLVIIIB) (Exp 1, IFA) is “Inactive”. For the same compound, in the data set with HIV-1 (HTLVIIIB) (Exp 2, IFA), the “IC50 HIV-1 replication (Exp 2)” value was “Inactive”.

As usually defined, the IC50 is the point on the concentration scale where inhibition reaches its midpoint. With `O=c1cc(-c2cnccn2)ss1` [compound 3], the “IC50 HIV-1 replication (Exp 2)” value in the data set on HIV-1 (HTLVIIIB) (Exp 2, IFA) is on record as “Inactive”. In addition, the concentration for half-maximal inhibition (IC50) in the data set on HIV-1 (HTLVIIIB) (setting [5]) was determined as 4 µM.

`Cc1ncc(-c2cc(=S)ss2)nc1C` [compound 4]: the “IC50 HIV-1 replication (Exp 1)” value in the data set with HIV-1 (HTLVIIIB) (Exp 1, IFA) was “Inactive”. Moreover, in the data set on HIV-1 (HTLVIIIB) (Exp 2, IFA), the “IC50 HIV-1 replication (Exp 2)” value is recorded as “Inactive”.

For `Cc1c(-c2ccccn2)ssc1=S` [compound 5], the values for the half-inhibitory concentration (IC50) with HIV-1 (HTLVIIIB) (setting [5]) and with HIV-1 (HTLVIIIB) (setting [6]) were 3 µM and 10 µM, respectively.

With `Cc1c(-c2cccnc2)ssc1=S` [compound 6], the “IC50 HIV-1 replication (Exp 2)” value in the data set with HIV-1 (HTLVIIIB) (Exp 2, IFA) is reported as “Inactive”. Besides, the half-maximal inhibitory concentration (IC50) in the data set with HIV-1 (HTLVIIIB) (setting [5]) stood at 10 µM.

With `Cc1c(-c2ccncc2)ssc1=S` [compound 7], the IC50 in the data set with HIV-1 (HTLVIIIB) (setting [5]) and in the data set on HIV-1 (HTLVIIIB) (setting [6]) was 60 µM throughout.

As for `Cc1c(-c2cccnn2)ssc1=S` [compound 8], the IC50 with HIV-1 (HTLVIIIB) (setting [5]) worked out at 2 µM; with HIV-1 (HTLVIIIB) (setting [6]), 4 µM.

For `Cc1c(-c2cccs2)ssc1=S` [compound 9, 4-methyl-5-(2-thiofuranyl)-1,2-dithiole-3-thione], the IC50 came out at 0.4 µM with HIV-1 (HTLVIIIB) (setting [5]); 2 µM in the data set on HIV-1 (HTLVIIIB) (setting [6]); 1.8 ± 0.7 µM in the data set on HIV-1 (HTLVIIIB) (N=5 independent experiments, IFA, read-out: IC50 HIV-1 replication). The “irreversible inhibition of reverse transcriptase” value in data set [2] is reported as “behaves kinetically as an irreversible inhibitor of reverse transcriptase”.

As for `Cc1c(C=Cc2cnccn2)ssc1=S` [compound 10], the IC50 in the data set with HIV-1 (HTLVIIIB) (setting [5]) and in the data set with HIV-1 (HTLVIIIB) (setting [6]) was more than 60 µM throughout.

With `Cc1c(-c2cnccn2)ssc1=O` [compound 12], the “IC50 HIV-1 replication (Exp 2)” value with HIV-1 (HTLVIIIB) (Exp 2, IFA) is on record as “Inactive”. Besides, the IC50 in the data set on HIV-1 (HTLVIIIB) (setting [5]) was 10 µM.

In the case of `OCc1c(-c2cnccn2)ssc1=S` [compound 13], the IC50 is 0.4 µM in the data set on HIV-1 (HTLVIIIB) (setting [5]) and 0.2 µM in the data set on HIV-1 (HTLVIIIB) (setting [6]).

On to `CCc1c(-c2cnccn2)ssc1=S` [compound 14], for which the IC50 with HIV-1 (HTLVIIIB) (setting [5]) and in the data set with HIV-1 (HTLVIIIB) (setting [6]) was 15 µM in each case.

Turning to `CCCCc1c(-c2cnccn2)ssc1=S` [compound 15], the IC50 in the data set on HIV-1 (HTLVIIIB) (setting [5]) and in the data set with HIV-1 (HTLVIIIB) (setting [6]) was 2 µM in each case.

In the case of `CCOC(=O)c1c(-c2ccccn2)ssc1=S` [compound 16], the IC50 with HIV-1 (HTLVIIIB) (setting [5]) worked out at 1 µM; in the data set with HIV-1 (HTLVIIIB) (setting [6]), 4 µM.

Regarding `CCOC(=O)c1c(-c2ccncc2)ssc1=S` [compound 17], the results for the IC50 in the data set with HIV-1 (HTLVIIIB) (setting [5]) and with HIV-1 (HTLVIIIB) (setting [6]) were 15 µM and more than 60 µM, respectively.

With `CC(C)c1ccc(Nc2ssc(=S)c2Cl)cc1` [compound 18], the figures for the IC50 in the data set on HIV-1 (HTLVIIIB) (setting [5]) and in the data set with HIV-1 (HTLVIIIB) (setting [6]) were 0.4 µM and more than 60 µM, respectively.

For the compound `CC(C)c1ccc(Nc2ssc(=O)c2Cl)cc1` [compound 19], the IC50 in the data set with HIV-1 (HTLVIIIB) (setting [5]) was more than 60 µM; in the data set with HIV-1 (HTLVIIIB) (setting [6]), 1 µM.

Regarding `CCOC(=O)Cc1c(-c2cncnc2)ssc1=S` [compound 20], the 50% inhibitory concentration (IC50) in the data set on HIV-1 (HTLVIIIB) (setting [5]) and in the data set with HIV-1 (HTLVIIIB) (setting [6]) was more than 60 µM each time.

Regarding `CC(C)N(C(=O)Cc1c(-c2cncnc2)ssc1=S)C(C)C` [compound 21], the IC50 in the data set on HIV-1 (HTLVIIIB) (setting [5]) is 1 µM; with HIV-1 (HTLVIIIB) (setting [6]) it was more than 60 µM.

Turning to `S=c1ssc(-c2cccnn2)c1CCc1ccccc1` [compound 22], the IC50 is 0.4 µM in the data set with HIV-1 (HTLVIIIB) (setting [5]) and more than 60 µM in the data set on HIV-1 (HTLVIIIB) (setting [6]).

For the compound `CN(C)CCCON=c1cc(-c2ccncc2)ss1` [compound 23], the values for the IC50 in the data set on HIV-1 (HTLVIIIB) (setting [5]) and in the data set on HIV-1 (HTLVIIIB) (setting [6]) were 0.4 µM and more than 60 µM, respectively.

Turning to `CCCCc1c(-c2ccc(N(C)C)nn2)ssc1=S` [compound 24], in the data set with HIV-1 (HTLVIIIB) (Exp 1, IFA), the “IC50 HIV-1 replication (Exp 1)” value is on record as “Inactive”. Further, in the data set with HIV-1 (HTLVIIIB) (Exp 2, IFA), the “IC50 HIV-1 replication (Exp 2)” value was “Inactive”.

Regarding `COC(=O)/C=C/C(=O)OC` [dimethyl fumarate], in data set [3], the “elevation of GSH” value was “able to elevate both GSH and QR levels”. In data set [4], the “elevation of QR” value was “able to elevate both GSH and QR levels”. Moreover, the “inhibition of HIV-1 replication” value in the data set on HIV-1 (HTLVIIIB) (up to 60 μM) is “inactive”. Also, the “cytotoxicity at optimal inductive doses” value with H9 cells is on record as “non-cytotoxic”.

Take `CC(C)(C)c1cc(O)ccc1O` [tert-butylhydroquinone]: the “elevation of GSH” value in data set [3] was “able to elevate both GSH and QR levels”. For the same compound, the “elevation of QR” value in data set [4] is “able to elevate both GSH and QR levels”. Also, the “inhibition of HIV-1 replication” value in the data set with HIV-1 (HTLVIIIB) (up to 30 μM) was “inactive”. Moreover, the “cytotoxicity at optimal inductive doses” value in the data set on H9 cells is “non-cytotoxic”.
